# Assay results: US6326372A, “Lactam and cyclic urea derivatives useful as alpha 1a adrenoceptor antagonists” (Merck & Co., Inc., priority 2000, dated 2001)
# Structures can show the parent of a compound that is named as a salt.
# Test system: alpha 1a receptors versus alpha 1b and alpha 1d receptors
# Test: Selective Binding Assays: binding to alpha 1a versus alpha 1b and alpha 1d receptors ([125I]-HEAT competition binding)
# Design: species or system human
# Settings: alpha 1a versus both alpha 1b and alpha 1d; at least about
# Method: Membranes prepared from the stably transfected human alpha 1a cell line (ATCC CRL 11140) were used to identify compounds that bind to the human alpha 1a adrenergic receptor. These competition binding reactions (total volume=200 μl) contained 50 mM Tris-HCl pH. 7.4, 5 mM EDTA, 150 mM NaCl, 100 pM [^125 I]-HEAT, membranes prepared from the alpha 1a cell line and increasing amounts of unlabeled ligand. Reactions were incubated at room temperature for one hour with shaking. Reactions were filtered onto Whatman GF/C glass fiber filters with a Inotec 96 well cell harvester. Filters were washed three times with ice cold buffer and bound radioactivity was determined (Ki).
# Membranes prepared from stably transfected human alpha 1d and alpha 1b cell lines (ATCC CRL 11138 and CRL 11139, respectively) were used to identify compounds that selectively bind to the human alpha 1a adrenergic receptor. These competition binding reactions (total volume=200 μl) contained 50 mM Tris-HCl pH. 7.4, 5 mM EDTA, 150 mM NaCl, 100 pM [^125 I]-HEAT, membranes prepared from cell lines transfected with the respective alpha 1 subtype expression plasmid and increasing amounts of unlabeled ligand. Reactions were incubated at room temperature for one hour with shaking. Reactions were filtered onto Whatman GF/C glass fiber filters with a Inotec 96 well cell harvester. Filters were washed three times with ice cold buffer and bound radioactivity was determined (Ki).
row,Compound,fold more selective in binding to alpha 1a receptors versus binding to the alpha 1b and alpha 1d receptors
1,"N#CC1(c2ccc(F)cc2)CCN(CCCNC(=O)N2C(=O)CCCC2c2ccc(F)c(F)c2)CC1 (single isomer, unassigned) [Example 6 (Enantiomer A), Hydrochloride]",at least 10 fold
2,"O=C(NCCCN1CCC(c2ccc(F)cc2)CC1)N1C(=O)NCC2(CCCCC2)C1c1ccc(F)c(F)c1 (single isomer, unassigned) [Example 20 (Isomer B), (4'R)- and (4'S)-Spirocyclohexane-[1,5']-{4-(3,4-difluorophenyl)-3-[(4'-(4-fluorophenyl)piperidin-1'-yl)propyl]aminocarbonyl}tetrahydropyrimidin-2-one Hydrochloride]",at least 10 fold
3,"N#Cc1ccccc1C1(C#N)CCN(CCCNC(=O)N2C(=O)CCCC2c2ccc(F)c(F)c2)CC1 (racemic) [Example 5, (6RS)-, 6(R)- and 6(S)-1-[3-[4-(2-Cyanophenyl)-4-cyanopiperidin-1-yl]-propylaminocarbonyl]-6-(3,4-difluorophenyl)piperidin-2-one Hydrochloride]",at least 10 fold
4,"CC1(C)CNC(=O)N(C(=O)NCCCN2CCC(c3ccc(F)cc3)CC2)C1c1ccc(F)c(F)c1 (single isomer, unassigned) [Example 18 (Step 3, Enantiomer B), Hydrochloride]",at least 10 fold
5,"O=C(NCCCN1CCC(c2ccc(F)cc2)CC1)N1C(=O)NCCC1c1ccc(F)c(F)c1 (single isomer, unassigned) [Example 14 (Step 9, Enantiomer A), Hydrochloride]",at least 10 fold
6,"C[C@H](c1ccccc1)N1CCC(c2ccc(F)c(F)c2)N(C(=O)NCCCN2CCC(c3ccccc3C#N)CC2)C1=O (stereo partly drawn) [Example 15 (Table 1, entry 2), 4-(3,4-difluorophenyl)-1-((R)-α-methylbenzyl)-3-[(4'-(2-cyanophenyl)piperidin-1'-yl)propyl]aminocarbonyltetrahydro-pyrimidin-2-one]",at least 10 fold
